This is an account of results in patent US20180162862A1 (President and Fellows of Harvard College, priority 2015, published 2018).

Converted amounts (≈) assume the structure as drawn. Read-outs that look alike come from different tables or passages of the source.

One test has as its system MSSA Newman. Put plainly: MIC test in TSB medium with MTT staining, MSSA Newman. It counts as cell-based, Staphylococcus aureus. The conditions noted are these: Staphylococcus aureus, TSB, 37° C. The method, then: MIC Test (Methicillin Susceptible Staphylococcus aureus (MSSA Newman))
Overnight cultures of MSSA Newman were grown up in TSB medium at 37° C. The cultures obtained were normalized with TSB to OD600=0.6 and diluted 100-fold. 1.5 μL of a dilution series of Example Compounds in DMSO (100×, in duplicate), and the diluted bacterial culture (150 μL) was added to wells of a sterile, clear 96 well plate and incubated at 37° C.

In another test the test system is S. aureus ATCC 29213. Put plainly: MIC test according to CLSI M7-A9, S. aureus ATCC 29213. It counts as cell-based. The conditions noted are these: Staphylococcus aureus, ATCC29213, CLSI M7-A9, CAMHB. A digest of the protocol:
(§1)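 Per CLSI M7-A9, DMSO stocks diluted in cation-adjusted Mueller Hinton broth, plates incubated 24 h at 37 °C in air. MIC is the lowest concentration giving complete inhibition of visible growth, read visually and at 600 nm.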

For another test, the system named is S. aureus ATCC 43300. Kind of test: MIC test according to CLSI M7-A9, S. aureus ATCC 43300. It counts as cell-based. As to conditions: Staphylococcus aureus, ATCC43300, CLSI M7-A9, CAMHB. The procedure, abridged:
as §1

In the next test the test system is S. aureus Newman. Put plainly: MIC test according to CLSI M7-A9, S. aureus Newman. It counts as cell-based. As to conditions: Staphylococcus aureus, CLSI M7-A9, CAMHB, 24 h (Table 3), read-out: S. aureus ATCC Newman MIC. The procedure: MIC Test (S. aureus ATCC 29213, S. aureus ATCC 43300 and S. aureus Newman)
Susceptibility testing of S. aureus ATCC 29213, ATCC 43300 and Newman was performed according to Clinical Laboratory Standard Institute (CLSI) guidelines M7-A9. Test articles were stored at room temperature prior to use, then dissolved in filtered sterile DMSO. Stock DMSO solutions were diluted further in cation-adjusted Mueller Hinton broth (CAMHB) to provide appropriate test concentrations. Cultures of S. aureus (ATCC 29213, ATCC 43300 or Newman) were added in accordance with CLSI guidelines and plates incubated at 37° C. in air for 24 h. Endpoints were determined visually (and by spectrophotometer at 600 nm) and the minimum inhibitory concentration (MIC) defined as the lowest concentration of test articles resulting in complete inhibition of visible bacterial growth. Results are detailed in Table 2 (S. aureus ATCC 29213 and ATCC 43300) and Table 3 (S. aureus ATCC 29213, ATCC 43300 and Newman).

Setting [1] is: MTT staining after 7 h, read-out: MSSA Newman MIC at 7 h.
[2] abbreviates: MTT staining after 24 h, read-out: MSSA Newman MIC at 24 h.
Setting [3] is: 24 h (Table 2), read-out: S. aureus ATCC 29213 MIC at 24 h.
Setting [4] is: 24 h (Table 2), read-out: S. aureus ATCC 43300 MIC at 24 h.
Where [5] appears, read: 24 h (Table 3), read-out: S. aureus ATCC 29213 MIC.
[6] abbreviates: 24 h (Table 3), read-out: S. aureus ATCC 43300 MIC.

What is called MIC is the smallest concentration in the dilution series that meets the test's criterion for growth inhibition. As to `CC(C)(C)c1ccc(-c2nc3cc(=O)[nH]n3c(=S)[nH]2)cc1` [Example 1, 2-(4-tert-butylphenyl)-4-sulfanylidene-3H,4H,6H,7H-pyrazolo[1,5-a][1,3,5]triazin-7-one], the MIC in the test on MSSA Newman (setting [1]) worked out at 12.5 µg/mL (≈ 41.6 µM); with MSSA Newman (setting [2]), 12.5 µg/mL (≈ 41.6 µM); with S. aureus ATCC 29213 (setting [3]), 16 µg/mL (≈ 53.3 µM); with S. aureus ATCC 43300 (setting [4]), 16 µg/mL (≈ 53.3 µM).
`CCCCNc1nc(-c2ccc(C)cc2)nc2cc(=O)[nH]n12` [Example 70, 4-(butylamino)-2-(4-methylphenyl)-6H,7H-pyrazolo[1,5-a][1,3,5]triazin-7-one]: the MIC with MSSA Newman (setting [1]) and in the test on MSSA Newman (setting [2]) was greater than 100 µg/mL in each case.
Take `CC(C)(C)c1ccc(-c2nc(O)n3[nH]c(=O)cc3n2)cc1` [Example 38, 2-(4-tert-butylphenyl)-4-hydroxy-6H,7H-pyrazolo[1,5-a][1,3,5]triazin-7-one]: the MIC with MSSA Newman (setting [1]) and with MSSA Newman (setting [2]) was 12.5 µg/mL (≈ 44 µM) throughout.
Take `CC(C)(C)c1ccc(-c2nc(NCCN3CCCCC3)n3[nH]c(=O)cc3n2)cc1` [Example 82, 2-(4-tert-butylphenyl)-4-{[2-(piperidin-1-yl)ethyl]amino}-6H,7H-pyrazolo[1,5-a][1,3,5]triazin-7-one]: the figures for the MIC with S. aureus ATCC 29213 (setting [5]), with S. aureus ATCC 43300 (setting [6]) and in the test on S. aureus Newman were 64 µg/mL (≈ 162 µM), 64 µg/mL (≈ 162 µM) and 32 µg/mL (≈ 81.1 µM), respectively.
In the case of `CC(C)(C)c1ccc(-c2nc(NCCN3CCOCC3)n3[nH]c(=O)cc3n2)cc1` [Example 81, 2-(4-tert-butylphenyl)-4-{[2-(morpholin-4-yl)ethyl]amino}-6H,7H-pyrazolo[1,5-a][1,3,5]triazin-7-one], the MIC in the test with S. aureus ATCC 29213 (setting [5]), in the test on S. aureus ATCC 43300 (setting [6]) and in the test with S. aureus Newman was 128 µg/mL (≈ 323 µM) each time.
As for `COCCCNc1nc(-c2ccc(C(C)(C)C)cc2)nc2cc(=O)[nH]n12` [Example 27, 2-(4-tert-butylphenyl)-4-[(3-methoxypropyl)amino]-6H,7H-pyrazolo[1,5-a][1,3,5]triazin-7-one], the MIC was 50 µg/mL (≈ 141 µM) with MSSA Newman (setting [1]), 100 µg/mL (≈ 281 µM) with MSSA Newman (setting [2]), greater than 32 µg/mL in the test with S. aureus ATCC 29213 (setting [3]) and greater than 32 µg/mL with S. aureus ATCC 43300 (setting [4]).
With `O=c1cc2nc(C34CC5CC(CC(C5)C3)C4)[nH]c(=S)n2[nH]1` [Example 99, 2-(adamantan-1-yl)-4-sulfanylidene-3H,4H,6H,7H-pyrazolo[1,5-a][1,3,5]triazin-7-one], the results for the MIC in the test with S. aureus ATCC 29213 (setting [5]), in the test on S. aureus ATCC 43300 (setting [6]) and in the test on S. aureus Newman were 64 µg/mL (≈ 212 µM), 64 µg/mL (≈ 212 µM) and 32 µg/mL (≈ 106 µM), respectively.
Consider `CCCCNc1nc(-c2ccc(C(C)(C)C)cc2)nc2cc(=O)[nH]n12` [Example 16, 4-(butylamino)-2-(4-tert-butylphenyl)-6H,7H-pyrazolo[1,5-a][1,3,5]triazin-7-one], for which the MIC in the test with MSSA Newman (setting [1]) was found to be 6.2 µg/mL (≈ 18.3 µM); in the test with MSSA Newman (setting [2]) it was 12.5 µg/mL (≈ 36.8 µM).
As to `Cc1cc(OCCCN(CCO)c2nc(-c3ccc(C(C)(C)C)cc3)nc3cc(=O)[nH]n23)ccc1Cl` [Example 85], the MIC is 32 µg/mL (≈ 62.7 µM) in the test with S. aureus ATCC 29213 (setting [5]), 32 µg/mL (≈ 62.7 µM) in the test on S. aureus ATCC 43300 (setting [6]) and 4 µg/mL (≈ 7.84 µM) with S. aureus Newman.
Take `CC(C)(O)c1ccc(-c2nc(NCCCNC3Cc4ccccc4C3)n3[nH]c(=O)cc3n2)cc1` [Example 105, 4-({3-[(2,3-dihydro-1H-inden-2-yl)amino]propyl}amino)-2-[4-(2-hydroxypropan-2-yl)phenyl]-6H,7H-pyrazolo[1,5-a][1,3,5]triazin-7-one]: the values for the MIC in the test with S. aureus ATCC 29213 (setting [5]), in the test on S. aureus ATCC 43300 (setting [6]) and in the test on S. aureus Newman were 32 µg/mL (≈ 69.8 µM), 16 µg/mL (≈ 34.9 µM) and 32 µg/mL (≈ 69.8 µM), respectively.
In the case of `Cc1oc(C(C)(C)C)cc1-c1nc2cc(=O)[nH]n2c(=S)[nH]1` [Example 92, 2-(5-tert-butyl-2-methylfuran-3-yl)-4-sulfanylidene-3H,4H,6H,7H-pyrazolo[1,5-a][1,3,5]triazin-7-one], the MIC is 32 µg/mL (≈ 105 µM) in the test with S. aureus ATCC 29213 (setting [5]), 16 µg/mL (≈ 52.6 µM) with S. aureus ATCC 43300 (setting [6]) and 8 µg/mL (≈ 26.3 µM) with S. aureus Newman.
As to `CC(C)(C)c1ccc(-c2nc(NCC(F)CNC3CCCCC3)n3[nH]c(=O)cc3n2)cc1` (stereo not drawn) [Example 87, 2-(4-tert-butylphenyl)-4-{[3-(cyclohexylamino)-2-fluoropropyl]amino}-6H,7H-pyrazolo[1,5-a][1,3,5]triazin-7-one], the MIC in the test on S. aureus ATCC 29213 (setting [5]), in the test with S. aureus ATCC 43300 (setting [6]) and in the test on S. aureus Newman was 32 µg/mL (≈ 72.6 µM) in each case.
As to `Cc1oc(C(C)(C)C)cc1-c1nc(NCCCNC2Cc3ccccc3C2)n2[nH]c(=O)cc2n1` [Example 94], the minimal inhibitory concentration (MIC) with S. aureus ATCC 29213 (setting [5]), in the test with S. aureus ATCC 43300 (setting [6]) and with S. aureus Newman was 16 µg/mL (≈ 34.7 µM) throughout.
In the case of `CNc1nc(-c2ccc(C(C)(C)C)cc2)nc2cc(=O)[nH]n12` [Example 17, 2-(4-tert-butylphenyl)-4-(methylamino)-6H,7H-pyrazolo[1,5-a][1,3,5]triazin-7-one], the MIC with MSSA Newman (setting [1]) came out at 50 µg/mL (≈ 168 µM).
`CC(=O)c1ccc(-c2nc(NCCCNC3Cc4ccccc4C3)n3[nH]c(=O)cc3n2)cc1` [Example 103, 2-(4-acetylphenyl)-4-({3-[(2,3-dihydro-1H-inden-2-yl)amino]propyl}amino)-6H,7H-pyrazolo[1,5-a][1,3,5]triazin-7-one]: the values for the MIC in the test on S. aureus ATCC 29213 (setting [5]), in the test on S. aureus ATCC 43300 (setting [6]) and with S. aureus Newman were 16 µg/mL (≈ 36.2 µM), 8 µg/mL (≈ 18.1 µM) and 32 µg/mL (≈ 72.3 µM), respectively.
`O=c1cc2nc(C34CC5CC(CC(C5)C3)C4)nc(NCCCO)n2[nH]1` [Example 100, 2-(adamantan-1-yl)-4-[(3-hydroxypropyl)amino]-6H,7H-pyrazolo[1,5-a][1,3,5]triazin-7-one]: the MIC in the test with S. aureus ATCC 29213 (setting [5]) worked out at 32 µg/mL (≈ 93.2 µM); in the test with S. aureus ATCC 43300 (setting [6]), 32 µg/mL (≈ 93.2 µM); with S. aureus Newman, 16 µg/mL (≈ 46.6 µM).
As to `CCCCCCCCCCCCCCCCNc1nc(-c2ccc(C(C)(C)C)cc2)nc2cc(=O)[nH]n12` [Example 73, 2-(4-tert-butylphenyl)-4-(hexadecylamino)-6H,7H-pyrazolo[1,5-a][1,3,5]triazin-7-one], the MIC in the test with S. aureus ATCC 29213 (setting [5]), in the test with S. aureus ATCC 43300 (setting [6]) and in the test with S. aureus Newman was greater than 32 µg/mL in each case.
Turning to `CC(C)(C)c1ccc(-c2nc(N)n3[nH]c(=O)cc3n2)cc1` [Example 37, 4-amino-2-(4-tert-butylphenyl)-6H,7H-pyrazolo[1,5-a][1,3,5]triazin-7-one], in the test with MSSA Newman (setting [1]), the MIC was determined as 25 µg/mL (≈ 88.2 µM).
With `CN(C)CCCNc1nc(-c2ccc(C(C)(C)C)cc2)nc2cc(=O)[nH]n12` [Example 75, 2-(4-tert-butylphenyl)-4-{[3-(dimethylamino)propyl]amino}-6H,7H-pyrazolo[1,5-a][1,3,5]triazin-7-one], the MIC in the test on S. aureus ATCC 29213 (setting [5]), with S. aureus ATCC 43300 (setting [6]) and in the test on S. aureus Newman was 32 µg/mL (≈ 86.8 µM) in each case.
For the molecule `CC(=O)c1ccc(-c2nc(NCCCOc3ccc(Cl)c(C)c3)n3[nH]c(=O)cc3n2)cc1` [Example 104, 2-(4-acetylphenyl)-4-{[3-(4-chloro-3-methylphenoxy)propyl]amino}-6H,7H-pyrazolo[1,5-a][1,3,5]triazin-7-one], the MIC with S. aureus ATCC 29213 (setting [5]), in the test with S. aureus ATCC 43300 (setting [6]) and with S. aureus Newman was 32 µg/mL (≈ 70.8 µM) throughout.
With `CC(C)(C)c1ccc(-c2nc(NCCCO)n3[nH]c(=O)c(Cc4ccccc4)c3n2)cc1` [Example 107, 8-benzyl-2-(4-tert-butylphenyl)-4-[(3-hydroxypropyl)amino]-6H,7H-pyrazolo[1,5-a][1,3,5]triazin-7-one], the MIC with S. aureus ATCC 29213 (setting [5]) is greater than 128 µg/mL; in the test with S. aureus ATCC 43300 (setting [6]), greater than 128 µg/mL; in the test with S. aureus Newman it was 64 µg/mL (≈ 148 µM).
Consider `CC(C)(O)CCNc1nc(-c2ccc(C(C)(C)C)cc2)nc2cc(=O)[nH]n12` [Example 80, 2-(4-tert-butylphenyl)-4-[(3-hydroxy-3-methylbutyl)amino]-6H,7H-pyrazolo[1,5-a][1,3,5]triazin-7-one], for which the values for the MIC in the test with S. aureus ATCC 29213 (setting [5]), in the test with S. aureus ATCC 43300 (setting [6]) and in the test on S. aureus Newman were 32 µg/mL (≈ 86.6 µM), 64 µg/mL (≈ 173 µM) and 32 µg/mL (≈ 86.6 µM), respectively.
For `Cc1cc(OCCNc2nc(-c3ccc(C(C)(C)C)cc3)nc3cc(=O)[nH]n23)ccc1Cl` [Example 46, 2-(4-tert-butylphenyl)-4-{[2-(4-chloro-3-methylphenoxy)ethyl]amino}-6H,7H-pyrazolo[1,5-a][1,3,5]triazin-7-one], the MIC in the test on MSSA Newman (setting [1]) and in the test with MSSA Newman (setting [2]) was 12.5 µg/mL (≈ 27.7 µM) throughout.
